From US8093288B2, “Genipin derivatives and uses thereof” (Beth Israel Deaconess Medical Center, priority 2003, dated 2012)

Columns and labels:
Format in all cases: cell-based
[1] = system: pancreatic islets from wildtype mice; assay: Insulin secretion in isolated pancreatic islets from wildtype mice; conditions: 5.5 mM glucose; 5 μM D1; 37° C. for 60 min; WT islets; FIG. 11C
Procedure: As used or herein, pancreatic islets from wildtype and UCP2 knockout mice were isolated according to a method used for rats (Cawthorn and Chan, Mol. Cell. Endocrinol. 1991, 75:197-204, the entire teachings of which are incorporated herein by reference), except that the total exposure to type XI collagenase (Worthington Biochemical Co., NJ) was 30 min. and the Ficoll gradient was altered to layers of 25%, 23%, 21%, and 11%. Islets were harvested from the 11%-21% interface.
Islets were cultured in RPMI medium containing 11.0 mM glucose and supplemented with 1% penicillin-streptomycin. 7.5% fetal bovine serum (all from Gibco/BRL, Burlington, ON), and 10 mM Hepes (Sigma). After culturing for 20-24 hr, the islets were transferred to microcentrifuge tubes, pelleted (800 g for 5 min), and the medium aspirated and replaced with 1.0 mL DME medium containing 1% gelatin and 5.5 mM glucose with no genipin (control), 50 nM genipin, 0.5 μM genipin, and 5 μM genipin. For insulin secretion studies, the three islets were incubated per tube. After incubation at 37° C. for 60 min., the islets were centrifuged. The supernatant was collected and stored at −80° C., and then later assayed for insulin using Rat Insulin ELISA Kit (Cat. No. INSKR020, Crystal Chem., Inc., Chicago, Ill.).
FIGS. 11B and 11C show their effects on insulin secretion. Pancreatic islets were isolated from WT or UCP2 knockout (KO) mice. […]

[2] = system: UCP2 deficient islets; assay: ATP levels and insulin secretion in UCP2 deficient islets
Source text: (§1) It has been shown that addition of high levels of superoxide to isolated mitochondrial stimulates proton leak if UCP1, UCP2 or UCP3 (collectively “UCPs”) are present.

[3] = system: thymocytes that are deficient in UCP2; assay: Proton leak in thymocytes deficient in UCP2
Source text: as §1

[4] = system: isolated thymocytes; assay: Proton leak in isolated thymocytes
Source text: as §1

[5] = system: isolated islets; assay: ATP levels and insulin secretion in isolated islets
Source text: as §1

Row | Structure (SMILES) | insulin secretion [1] | ATP levels and insulin secretion [2] | proton leak [3] | proton leak [4] | ATP levels [5] | insulin secretion [5]
1 | COC(=O)C1=CO[C@@H]2OC[C@@]3(O)[C@@H]2[C@@H]1C[C@H]3Cl [compound 55] | increases insulin secretion in WT islets |  |  |  |  | 
2 | O=C(O)c1ccc(/C2=C3\C=CC(=N3)/C(c3ccc(C(=O)O)cc3)=c3/cc/c4[n]3[Mn]([Cl])[n]3c2ccc3/C(c2ccc(C(=O)O)cc2)=C2/C=CC(=N2)\C=4c2ccc(C(=O)O)cc2)cc1 [MnTBAP] |  | absent | not present | decreases proton leak | increased ATP levels | increased insulin secretion
